Reference: patent publication US11911397B2, “Anordrin compositions and methods for treating diseases” (Zhejiang Jiachi Development Pharmaceuticals LTD, priority 2014, dated 2024)

Legend:
[1] = tested on: BRCA1, ApoD, COX7a mRNA in MCF-7 cells; assay: RT-qPCR of genes regulated by the estrogen classic pathway in MCF-7 cells; assay type: cell-based; settings: for expression of ApoD: FIG. 13B
[2] = tested on: ovariectomized (OVX) mice; assay: ovariectomized (OVX) mice model; assay type: in vivo; settings: for body mass / total cholesterol (TC) in liver / triglyceride (TG) in liver / fat deposits in paraffin sections of liver: OVX mice; for body mass: after 6 weeks, intragastric; for total cholesterol (TC) in liver / triglyceride (TG) in liver: compared to controls
[3] = biological target: T1, ER-α ligand binding domain (GST-ER-α-LBD) (Homo sapiens, UniProt P03372); assay: 3H-E2 competition assay on GST-ER-α-LBD beads; settings: for blocking of [H^3-E2] binding to GST-ER-α-LBD on beads: 50 nM, 0.5 nM [H^3-E2], 1 μg GST-ER-α-LBD
T1 construct: made in house; host or cells: E. coli
T1 sequence (P03372 311-547 limits assumed): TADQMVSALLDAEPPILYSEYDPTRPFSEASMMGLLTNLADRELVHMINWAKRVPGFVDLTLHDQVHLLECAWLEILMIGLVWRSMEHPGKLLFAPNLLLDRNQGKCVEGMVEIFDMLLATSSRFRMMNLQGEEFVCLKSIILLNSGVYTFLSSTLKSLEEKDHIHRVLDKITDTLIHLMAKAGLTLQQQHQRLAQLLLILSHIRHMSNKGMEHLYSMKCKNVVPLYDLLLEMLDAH

[4] = tested on: Bcl-2 expression in MCF-7 cells; assay: Bcl-2 expression in MCF-7 cells (western blotting, RT-qPCR); assay type: cell-based; settings: for increase of Bcl-2 mRNA transcription: 6 μM dinordrin, RT-qPCR
[5] = tested on: 8S and 4S estrogen-binding complexes in uterine cytosol; settings: cited from earlier work
normal mice = normal mice treated with tamoxifen, anordrin or both
MDA-MB-231 cells [6] = assay: MDA-MB-231 cell growth, cell counting; assay type: cell-based; settings: 6 μM anordrin
MCF-7 cells [7] = assay: glucose consumption and medium pH of MCF-7 cells; assay type: cell-based; settings: for glucose concentration of media / glucose consumption: 60 hours
[8] = tested on: endometrial epithelial cells; assay: endometrial epithelial cells in mice (histology); settings: for endometrial epithelial cell proliferation: monolayer vs polylayer
Source text: Preparation of paraffin sections and HE staining: The tissue of mice was excised by surgery and fixed using 2.5% formaldehyde in 1×PBS.

ER-β = biological target: T2, ER-β (Homo sapiens, UniProt Q92731); assay: 3H-E2 binding to ER-β fusion protein expressed in HEK-293 cells; settings: 100 nM anordrin, 1 nM 3H-E2, HEK-293 lysate
T2 construct: expressed in transfected cells; host or cells: HEK-293
Experimental: (§1) Binding and competition assays: GST and GST-ER-α fusion proteins were expressed in E. coli and purified using glutathione beads. 2 μg/ml GST (40-80 nM) fusion proteins in 1 ml TE buffer was mixed with 1 nM ^3H-E2 at 4° C. for 2 h. Radioactivity on beads was measured using a GM meter. HEK-293 cells were transfected to express GST fusion proteins of ER-β or GPER1. Cells were lysed in 1×TE buffer containing protease inhibitor cocktail (sigma) on ice for 30 min, 80% glycerol was added to reach 20% glycerol. Tubes were centrifuged at 300 g for 5 min and supernatant was collected. Protein concentration was measured by Bio-rad protein concentration assay kit. 100 nM anordrin and 1 nM^3H-E2 was added to 1 ml lysate (5 mg/ml total protein) at 4° C. for 2 h. Radioactivity on beads was measured using GM meter.

T47D cells = assay: EGF-induced T47D cell growth; assay type: cell-based; settings: 7.5 μM, 10 ng/ml EGF
GPER1 = biological target: T3, GPER1 (Homo sapiens, UniProt Q99527); assay: 3H-E2 binding to GPER1 fusion protein expressed in HEK-293 cells; settings: 100 nM anordrin, 1 nM 3H-E2, HEK-293 lysate
T3 construct: expressed in transfected cells; host or cells: HEK-293
Experimental: as §1

[9] = tested on: ERK phosphorylation in HepG2 cells; assay: phosphorylation of ERK in HepG2 cells; assay type: cell-based; settings: non-monotonic dose response
[10] = tested on: patients whose cancers were potentially caused by EGF/Her1; settings: patients who failed to be inhibited by an EGF competitor; cited from earlier work
HepG2 cells = assay: HepG2 cell growth; assay type: cell-based
Hec1A cells = assay: Hec1A cell proliferation; assay type: cell-based
Ishikawa cells = assay: Ishikawa cell proliferation; assay type: cell-based
[11] = tested on: integrin β1 in MDA-MB-231 cells; assay: integrin β1 cell surface distribution and expression in MDA-MB-231 cells; assay type: cell-based; settings: 6 μM
Experimental: (§2) MCF-7 cells were harvested and lysed in RIPA buffer. 40 μg total protein of cellular lysate was used for Western blotting to determinate the expression level of integrin β1.
(§3) Integrin translocation to the cell surface is regulated by the p130Cas scaffold protein complex to play a fundamental role in cell attachment and migration. Integrin α3β1 has been reported to be involved in MCF-7 cell attachment as well as MDA-MB-231 cell migration (25, 26). […] To verify the hypothesis, we treated MCF-7 and MDA-MB-231 cells with 6 μM anordrin for 16 hours and measured cell surface integrin β1 distribution using a FITC-labeled anti-integrin β1 antibody. […] Taken together, we conclude that anordrin or analog thereof (such as […]) binds to membrane-associated ER to inhibit cell migration and proliferation.
(§4) Transwell and flow cytometry assay: Cells were starved for 48 hours in phenol red free medium containing 5% charcoal-stripped FBS, and then changed into phenol red free medium for an additional 24 hours. Transwell was performed following the Chemicon kit instructions (CAT #ECM551). Briefly, cells were trypsinized, washed using 1×DPBS containing Ca2+ and Mg2+ (Sigma) and resuspensed in serum and phenol red free medium at a cell density of 0.5×10^6 cells/ml. […]

MDA-MB-231 cells [12] = assay: MDA-MB-231 cell migration (matrixgel / transwell); assay type: cell-based; settings: 6 μM anordrin
Experimental: As anordrin has been reported as an anti-angiogenic agent resulting in inhibition of cell migration and invasion (16), we studied its ability to modulate MDA-MB-231 cell migration using matrixgel. […] After 20 hours migrated cells were stained and quantified using a plate reader at 560 nm.

[13] = tested on: integrin β1 in MCF-7 cells; assay: integrin β1 cell surface distribution and expression in MCF-7 cells; assay type: cell-based; settings: 6 μM
Experimental: as §2, §3, §4

MCF-7 cells [14] = assay: MCF-7 cell growth, cell counting; assay type: cell-based
Experimental: To test this hypothesis we induced MCF-7 cells in IL-free medium for two months. Drug sensitivity of cell growth was tested by counting the cell number after 144 h of inoculation (FIG. 13A).

db/db mice = assay: blood glucose in db/db mice; assay type: in vivo
ER-α-36 = biological target: T4, ER-α-36 (Homo sapiens, UniProt P03372); assay: 3H-E2 binding to ER-α-36 expressed in HEK-293 cells; settings: blocking at low, facilitating at higher concentrations
T4 construct: expressed in transfected cells; host or cells: HEK-293
Source text: MIESs effect their regulation of cell proliferation, migration, cell-cell junction and matrix, and energy metabolism through a series of scaffold protein complexes. ER-α association with the plasma membrane is facilitated by palmitoylation at residue C447 in the LBD. […] To verify this, we measured the binding affinity of 3H-E2 with GST-ER-α-36 expressed and purified from E. coli. […] In contrast, 3H-E2 does bind to GST-ER-α-46, which has a full length ER-α-LBD.
Isolation of microsome and Drug competition assay: Cells were harvested and lysed in TE buffer (50 mM Tris (pH8.0), 5 mM EDTA, 2 mM PMSF and protease inhibitor cocktail (Sigma)) for 30 min with vortexing every 5 min. 80% glycerol in TE buffer was added to cell lysates to reach 20% and centrifuged at 800 g for 5 min. The supernatant was transferred to new tubes and total protein concentration was adjusted to 5 mg/ml. Drugs and ^3H-E2 were added to 1 ml protein solution and incubated at 4° C. for 2 hours. Microsome was precipitated at 25 krpm for 2 hours. Bound ^3H-E2 was measured using GM meter.

MCF-7 cells [15] = assay: 2-NBDG glucose uptake and cellular ATP in MCF-7 cells; assay type: cell-based
Experimental: Glucose uptake was measured using fluorescently labeled glucose (2-NBDG), and ATP concentrations were measured using an ATP analysis kit.

[16] = tamoxifen 4.5 μg/g body mass per day, 9 weeks
[17] = charcoal-stripped FBS in phenol red free DMEM
[18] = anordrin 0.45 μg/g in combination with tamoxifen 4.5 μg/g per day

T2 sequence (Q92731 whole entry, species assumed, the tested form may be a part): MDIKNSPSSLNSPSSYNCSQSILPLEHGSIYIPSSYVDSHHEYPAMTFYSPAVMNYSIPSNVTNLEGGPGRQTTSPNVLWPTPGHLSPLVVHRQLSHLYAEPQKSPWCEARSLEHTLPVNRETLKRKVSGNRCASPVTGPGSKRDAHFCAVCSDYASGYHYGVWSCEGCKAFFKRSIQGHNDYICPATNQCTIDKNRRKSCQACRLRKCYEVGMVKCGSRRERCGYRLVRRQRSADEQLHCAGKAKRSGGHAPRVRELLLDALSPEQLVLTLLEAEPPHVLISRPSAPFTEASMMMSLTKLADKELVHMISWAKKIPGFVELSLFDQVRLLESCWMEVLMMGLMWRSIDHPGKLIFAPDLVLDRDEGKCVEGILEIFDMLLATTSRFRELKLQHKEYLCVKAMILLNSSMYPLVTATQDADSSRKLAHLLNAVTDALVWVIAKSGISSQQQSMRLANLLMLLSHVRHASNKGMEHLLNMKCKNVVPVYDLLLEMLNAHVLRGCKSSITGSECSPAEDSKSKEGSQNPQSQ
T3 sequence (Q99527 whole entry, species assumed, the tested form may be a part): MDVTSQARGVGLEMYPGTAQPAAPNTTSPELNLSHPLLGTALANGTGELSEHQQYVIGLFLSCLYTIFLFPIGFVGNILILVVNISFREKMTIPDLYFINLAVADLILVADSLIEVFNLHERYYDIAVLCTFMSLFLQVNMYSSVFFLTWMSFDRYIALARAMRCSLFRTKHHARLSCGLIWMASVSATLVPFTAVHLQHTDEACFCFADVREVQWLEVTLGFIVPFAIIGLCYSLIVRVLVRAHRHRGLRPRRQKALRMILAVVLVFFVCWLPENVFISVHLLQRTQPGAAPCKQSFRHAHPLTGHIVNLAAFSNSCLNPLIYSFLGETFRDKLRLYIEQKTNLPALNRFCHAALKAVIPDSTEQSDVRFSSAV
T4 sequence (P03372 1-310 isoform P03372-4): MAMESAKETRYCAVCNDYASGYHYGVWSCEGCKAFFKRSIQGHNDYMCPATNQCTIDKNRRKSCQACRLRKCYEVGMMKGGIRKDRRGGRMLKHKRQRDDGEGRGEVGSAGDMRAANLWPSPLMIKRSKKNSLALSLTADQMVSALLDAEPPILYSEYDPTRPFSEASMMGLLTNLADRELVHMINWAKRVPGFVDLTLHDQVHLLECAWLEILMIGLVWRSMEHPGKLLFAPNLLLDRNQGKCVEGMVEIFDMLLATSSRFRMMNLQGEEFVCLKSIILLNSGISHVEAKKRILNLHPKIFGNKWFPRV

## O=C(c1ccc(OCCN2CCCCC2)cc1)c1c(-c2ccc(O)cc2)sc2cc(O)ccc12 [raloxifene]
[1]
  expression of ApoD: enhance expression of ApoD

## CC(C)Oc1ccc2c(=O)c(-c3ccccc3)coc2c1 [ipriflavone]
[2]
  body mass: increased
  total cholesterol (TC) in liver: no change
  triglyceride (TG) in liver: no change

## C#C[C@@]1(OC(=O)CC)C[C@@H]2CC[C@@H]3[C@H](CC[C@@]4(C)[C@H]3CC[C@]4(C#C)OC(=O)CC)[C@H]2C1 [dinordrin]
[3]
  blocking of [H^3-E2] binding to GST-ER-α-LBD on beads: 63.2±5.7%
[4]
  increase of Bcl-2 mRNA transcription: 147.2%±22.73%

## C#C[C@@]1(O)C[C@@H]2CC[C@@H]3[C@H](CC[C@@]4(C)[C@H]3CC[C@@]4(O)C#C)[C@@]2(C)C1 [Anordiol, 2β,7α-diethyl-A-nor-5α-androstane-2α,17β-diol]
[5]
  binding to estrogen-binding complexes 4S and 8S: preferentially bind the 8S complex

## C[C@]12CC[C@@H]3c4ccc(O)cc4CC[C@H]3[C@@H]1CC[C@@H]2O [E2, 17-beta estradiol]
[2]
  fat deposits in paraffin sections of liver: smaller fat deposits
  body mass: remained unchanged
  total cholesterol (TC) in liver: decreased amounts
  triglyceride (TG) in liver: decreased amounts

## CC/C(=C(\c1ccccc1)c1ccc(OCCN(C)C)cc1)c1ccccc1 [tamoxifen]
[5]
  binding to estrogen-binding complexes 4S and 8S: bind both estrogen-binding complexes
Normal mice; [16]
  indicators of NASH syndrome: increased indicators of NASH syndrome
  liver TG levels: increased
Normal mice; tamoxifen 4.5 μg/g body mass per day, 9 weeks, normal mice
  body mass: increase in body mass
[1]
  mRNA level of BRCA1: significantly inhibited
  transcription of COX7a mRNA: significantly inhibited
  expression of ApoD: enhance expression of ApoD
MDA-MB-231 cells [6]
  MDA-MB-231 cell growth: no effect
MCF-7 cells [7]; MCF-7 cells
  glucose concentration of media / glucose consumption: inhibition
[4]; 7.5 μM, western blotting
  Bcl-2 protein expression: inhibit Bcl-2 expression
[4]; [17]
  Bcl-2 protein expression: Neither tamoxifen nor anordrin or analog thereof (such as anordrin) were found to affect Bcl-2 protein expression
[8]
  endometrial epithelial cell proliferation: induce proliferation

## C#C[C@@]1(OC(=O)CC)C[C@@H]2CC[C@@H]3[C@H](CC[C@@]4(C)[C@H]3CC[C@]4(C#C)OC(=O)CC)[C@@]2(C)C1 [anordrin, 2α,17α-diethynyl-A-nor-5α-androstane-2β,17β-diol dipropionate]
ER-β
  3H-E2 binding to ER-β fusion protein: inhibits
[2]
  fat deposits in paraffin sections of liver: smaller fat deposits
  body mass: remained unchanged
  total cholesterol (TC) in liver: decreased amounts
  triglyceride (TG) in liver: decreased amounts
[2]; ovariectomized mice
  bone marrow cells: prevent decrease
  serum Ca^2+: increased
  serum Pi: decreased
  uterine atrophy: prevent uterine atrophy
[2]; ovariectomized mice, micro-CT
  bone density: increased
T47D cells
  EGF-induced cell growth: blocked the increase in cell growth
GPER1
  3H-E2 binding to GPER1 fusion protein: inhibits
[9]
  concentration of maximal phosphorylation of ERK: 10 µM
Normal mice; [18]
  tamoxifen-induced NASH syndrome phenotype: completely reversed
  tamoxifen-induced body weight phenotype: completely reversed
  tamoxifen-induced liver TG phenotype: completely reversed
Normal mice; mice
  increased serum TG levels induced by tamoxifen: reverse
  increased serum viscosity induced by tamoxifen: reverse
Normal mice; tamoxifen treated mice
  tamoxifen-induced uterine and vaginal atrophy: decrease the extent
[10]
  quality of life and lifespan of patients: improve the quality of life and increase the lifespan
HepG2 cells
  concentration showing the greatest degree of inhibition of cell growth: around 7 μM
  shape of dose response of cell growth inhibition: biphasic dose response
Hec1A cells
  doses inhibiting proliferation: 2 to 8 µM
Ishikawa cells
  doses inhibiting proliferation: 2 to 8 µM
[3]; 50 nM compound, 0.5 nM 3H-E2, 2 μg GST-ER-α-LBD
  inhibition of 3H-E2 binding to GST-ER-α-LBD: could not inhibit
[3]
  blocking of [H^3-E2] binding to GST-ER-α-LBD on beads: no inhibition
[11]
  expression level of integrin β1: did not affect
[11]; 16 hours
  integrin β1 distribution to the plasma membrane: down-regulated
MDA-MB-231 cells [12]; 10 nM E2
  MDA-MB-231 cell migration in medium containing E2: significantly inhibited
MDA-MB-231 cells [12]; 10 ng/ml EGF
  MDA-MB-231 cell migration in medium containing EGF: significantly inhibited
[1]
  mRNA level of BRCA1: did not significantly affect
[13]
  expression level of integrin β1: did not affect
[13]; 16 hours
  integrin β1 distribution to the plasma membrane: down-regulated
MCF-7 cells [14]; 200 nM anordrin in the culture medium
  effect on the ability of tamoxifen to inhibit MCF-7 cell growth: did not affect
MCF-7 cells [14]; Homo sapiens, MCF7, 7.5 μM
  inhibition at 7.5 µM: > 50%
MDA-MB-231 cells [6]
  MDA-MB-231 cell growth: inhibits MDA-MB-231 cell growth significantly
MCF-7 cells [7]; 200 nM anordrin with 1 μM tamoxifen, MCF-7, 60 hours
  effect on tamoxifen inhibition of glucose metabolism: reversed the inhibitory effect
MCF-7 cells [7]; MCF-7 cells
  pH of culture medium: decreased pH
  glucose concentration of media / glucose consumption: lower
db/db mice; female db/db mice, 0.45 μg/g body mass daily, 4 weeks
  whole blood glucose / glucose consumption: improved glucose consumption
db/db mice; male db/db mice, data not shown
  glucose consumption: no affect
[4]
  increase of Bcl-2 mRNA transcription: 3.18%±3.22%
[4]; 7.5 μM, data not shown
  Bcl-2 mRNA expression: not affected
[4]; 7.5 μM, western blotting
  Bcl-2 protein expression: not affected
[4]; [17]
  Bcl-2 protein expression: Neither tamoxifen nor anordrin or analog thereof (such as anordrin) were found to affect Bcl-2 protein expression
[8]
  hypertrophy of endometrial epithelial cells: causes hypertrophy
  endometrial epithelial cell proliferation: does not induce
ER-α-36
  effect on 3H-E2 binding to ER-α-36: biphasic effect
MCF-7 cells [15]
  2-NBDG uptake: enhanced
  cellular ATP concentrations: enhanced
